# Values quoted from earlier work as cited in patent publication US20040259736A1, “Biodegradable solid preparation of a phytopathologicalagent with delayed active substance release” (priority 2001, published 2004).
SMILES,solubility in water [µg/mL],solubility in water (in words)
"CN/C(=N\[N+](=O)[O-])NCc1cnc(Cl)s1 [Clothianidin, (E)-1-(2-chlorothiazol-5-ylmethyl)-3-methyl-2-nitroguanidine]",270,
CNC(=N[N+](=O)[O-])NCC1CCOC1 (stereo not shown) [MTI-446],54000,freely soluble in water
"CNC(=O)C(=NOC)c1ccccc1CO/N=C(\C)C(=NOC)/C(C)=N/OC [II-4, N-Methyl-2-(methoxyimino)-2-{2-[(3E,6E)-5-(methoxyimino)-4,6-dimethyl-2,8-dioxa-3,7-diazanona-3,6-dien-1-yl]phenyl}-acetamide]",80,
